Here are results for 24 compounds from patent US7429585B2, “Phenyl-piperazine methanone derivatives, substituted by heterocyclic groups” (Hoffmann-La Roche, priority 2004, dated 2008).

The target in the experiment is T1, mGlyT-1b (Mus musculus, UniProt P28571).
T1 construct: host or cells: Flp-in-CHO
T1 sequence (P28571 1-651 isoform P28571-2): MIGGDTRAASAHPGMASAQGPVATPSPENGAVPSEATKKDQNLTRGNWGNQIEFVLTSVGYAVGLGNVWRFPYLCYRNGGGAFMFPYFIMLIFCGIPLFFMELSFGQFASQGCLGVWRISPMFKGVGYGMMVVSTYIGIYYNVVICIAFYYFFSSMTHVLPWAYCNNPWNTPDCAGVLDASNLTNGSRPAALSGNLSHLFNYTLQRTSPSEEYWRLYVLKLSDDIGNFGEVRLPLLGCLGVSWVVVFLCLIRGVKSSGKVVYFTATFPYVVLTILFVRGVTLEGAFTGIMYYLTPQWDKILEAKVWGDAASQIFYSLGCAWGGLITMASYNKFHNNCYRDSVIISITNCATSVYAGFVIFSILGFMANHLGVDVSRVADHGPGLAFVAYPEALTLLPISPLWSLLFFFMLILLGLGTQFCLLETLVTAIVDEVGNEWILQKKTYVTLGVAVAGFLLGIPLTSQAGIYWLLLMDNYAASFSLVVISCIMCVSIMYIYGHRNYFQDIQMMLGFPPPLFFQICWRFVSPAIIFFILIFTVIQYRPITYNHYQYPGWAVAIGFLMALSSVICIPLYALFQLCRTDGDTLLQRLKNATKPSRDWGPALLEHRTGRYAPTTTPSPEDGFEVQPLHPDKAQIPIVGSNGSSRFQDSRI
Put plainly: Glycine uptake inhibition assay (mGlyT-1b). Format: cell-based. To be noted: inhibition of [3H]-glycine uptake in Flp-in-CHO cells transfected with mGlyT-1b cDNA. How it is done:
DMEM complete medium: Nutrient mixture F-12 (Gibco Life-technologies), fetal bovine serum (FBS) 5%, (Gibco life technologies), Penicillin/Streptomycin 1% (Gibco life technologies), Hygromycin 0.6 mg/ml (Gibco life technologies), Glutamine 1 mM Gibco life technologies)
Uptake buffer (UB): 150 mM NaCl, 10 mM Hepes-Tris, pH 7.4, 1 mM CaCl2, 2.5 mM KCl, 2.5 mM MgSO4, 10 mM (+) D-glucose. Flp-in™-CHO (Invitrogen Cat n° R758-07)cells stably transfected with mGlyT1b cDNA.
Glycine Uptake Inhibition Assay (mGlyT-1b)
On day 1 mammalian cells, (Flp-in™-CHO), transfected with mGlyT-1b cDNA, were plated at the density of 40,000 cells/well in complex F-12 medium, without hygromycin in 96-well culture plates. On day 2, the medium was aspirated and the cells were washed twice with uptake buffer (UB). The cells were then incubated for 20 min at 22° C. with either (i) no potential competitor, (ii) 10 mM non-radioactive glycine, (iii) a concentration of a potential inhibitor. A range of concentrations of the potential inhibitor was used to generate data for calculating the concentration of inhibitor resulting in 50% of the effect (e.g. IC50, the concentration of the competitor inhibiting glycine uptake of 50%). A solution was then immediately added containing [^3H]-glycine 60 nM (11-16 Ci/mmol) and 25 μM non-radioactive glycine. The plates were incubated with gentle shaking and the reaction was stopped by aspiration of the mixture and washing (three times) with ice-cold UB. The cells were lysed with scintillation liquid, shaken 3 hours and the radioactivity in the cells was counted using a scintillation counter.
Usually IC50 stands for the concentration needed to halve the response being measured. For the compound `O=C(c1cc([N+](=O)[O-])ccc1N1CCOCC1)N1CCN(c2nc3ccc(Cl)cc3s2)CC1` [Example 1.1, [4-(6-Chloro-benzothiazol-2-yl)-piperazin-1-yl]-(2-morpholin-4-yl-5-nitro-phenyl) -methanone], the IC50 stood at 271 nM. The result for `CC(C)Oc1ccc(S(C)(=O)=O)cc1C(=O)N1CCN(c2nc3ccc(Cl)cc3s2)CC1` [Example 1.2, [4-(6-Chloro-benzothiazol-2-yl)-piperazin-1-yl]-(2-isopropoxy-5-methanesulfonyl-phenyl)-methanone] reads 398 nM; that for `CS(=O)(=O)c1ccc(OC2CCCC2)c(C(=O)N2CCN(c3nc4ccccc4o3)CC2)c1` [Example 1.4, (4-Benzoxazol-2-yl-piperazin-1-yl)-(2-cyclopentyloxy-5-methanesulfonyl-phenyl)-methanone], 97 nM.

In turn, `CC(C)COc1ccc(S(C)(=O)=O)cc1C(=O)N1CCN(c2nc3ccccc3o2)CC1` [Example 1.5, (4-Benzoxazol-2-yl-piperazin-1-yl)-(2-isobutoxy-5-methanesulfonyl-phenyl)-methanone] displayed an IC50 of 144 nM. On to `COc1ccc2nc(N3CCN(C(=O)c4cc(S(C)(=O)=O)ccc4OC(C)C)CC3)sc2c1` [Example 1.8, (2-Isopropoxy-5-methanesulfonyl-phenyl)-[4-(6-methoxy-benzothiazol-2-yl)-piperazin-1-yl]-methanone], for which half-maximal inhibition (IC50) was put at 174 nM. Compound `CC(C)Oc1ccc(S(C)(=O)=O)cc1C(=O)N1CCN(c2nc3ccc([N+](=O)[O-])cc3s2)CC1` [Example 1.9, (2-Isopropoxy-5-methanesulfonyl-phenyl)-[4-(6-nitro-benzothiazol-2-yl)-piperazin-1-yl]-methanone] displayed an IC50 of 206 nM.

Regarding `COc1cccc2sc(N3CCN(C(=O)c4cc(S(C)(=O)=O)ccc4OC(C)C)CC3)nc12` [Example 1.11, (2-Isopropoxy-5-methanesulfonyl-phenyl)-[4-(4-methoxy-benzothiazol-2-yl)-piperazin-1-yl]-methanone], the IC50 worked out at 148 nM.

`CC(C)Oc1ccc(S(C)(=O)=O)cc1C(=O)N1CCN(c2nc3c([N+](=O)[O-])cccc3s2)CC1` [Example 1.12, (2-Isopropoxy-5-methanesulfonyl-phenyl)-[4-(4-nitro-benzothiazol-2-yl)-piperazin-1-yl]-methanone] registered an IC50 of 375 nM. Take `CC(C)Oc1ccc(S(C)(=O)=O)cc1C(=O)N1CCN(c2nc3c(O)cccc3s2)CC1` [Example 1.13, [4-(4-Hydroxy-benzothiazol-2-yl)-piperazin-1-yl]-(2-isopropoxy-5-methanesulfonyl-phenyl)-methanone]: 158 nM corresponded to half-maximal inhibition (IC50). In turn, `CC(C)Oc1ccc(S(C)(=O)=O)cc1C(=O)N1CCN(c2nc3cc(Cl)ccc3s2)CC1` [Example 1.14, [4-(5-Chloro-benzothiazol-2-yl)-piperazin-1-yl]-(2-isopropoxy-5-methanesulfonyl-phenyl)-methanone] yielded an IC50 of 218 nM. As for `CCOc1ccc2nc(N3CCN(C(=O)c4cc(S(C)(=O)=O)ccc4OC(C)C)CC3)sc2c1` [Example 1.15, [4-(6-Ethoxy-benzothiazol-2-yl)-piperazin-1-yl]-(2-isopropoxy-5-methanesulfonyl-phenyl)-methanone], the figure is 339 nM. Take `Cc1nc2cc(N3CCN(C(=O)c4cc(S(C)(=O)=O)ccc4OCC(C)C)CC3)ccc2s1` [Example 1.17, (2-Isobutoxy-5-methanesulfonyl-phenyl)-[4-(2-methyl-benzothiazol-5-yl)-piperazin-1-yl]-methanone]: the IC50 turned out to be 440 nM.

The compound `CC(C)COc1ccc(S(C)(=O)=O)cc1C(=O)N1CCN(c2ccc3ccccc3n2)CC1` [Example 1.19, (2-Isobutoxy-5-methanesulfonyl-phenyl)-(4-quinolin-2-yl-piperazin-1-yl)-methanone] registered an IC50 of 78 nM. As for `CS(=O)(=O)c1ccc(OC2CCCC2)c(C(=O)N2CCN(c3ccc4cc(Cl)ccc4n3)CC2)c1` [Example 1.22, [4-(6-Chloro-quinolin-2-yl)-piperazin-1-yl]-(2-cyclopentyloxy-5-methanesulfonyl-phenyl)-methanone], the figure is 399 nM; as for `CC(C)COc1ccc(S(C)(=O)=O)cc1C(=O)N1CCN(c2cnc3ccccc3n2)CC1` [Example 1.23, (2-Isobutoxy-5-methanesulfonyl-phenyl)-(4-quinoxalin-2-yl-piperazin-1-yl)-methanone], 167 nM; as for `CC(C)Oc1ccc(S(C)(=O)=O)cc1C(=O)N1CCN(c2cnc3ccccc3n2)CC1` [Example 1.24, (2-Isopropoxy-5-methanesulfonyl-phenyl)-(4-quinoxalin-2-yl-piperazin-1-yl)-methanone], 287 nM.

`CS(=O)(=O)c1ccc(OC2CCCC2)c(C(=O)N2CCN(c3cnc4ccccc4n3)CC2)c1` [Example 1.25, (2-Cyclopentyloxy-5-methanesulfonyl-phenyl)-(4-quinoxalin-2-yl-piperazin-1-yl)-methanone] registered an IC50 of 67 nM. In turn, `CC(C)COc1ccc(S(C)(=O)=O)cc1C(=O)N1CCN(c2cnc3ccccc3c2)CC1` [Example 1.27, (2-Isobutoxy-5-methanesulfonyl-phenyl)-(4-quinolin-3-yl-piperazin-1-yl)-methanone] returned an IC50 of 82 nM.

As to `CS(=O)(=O)c1ccc(OC2CCCC2)c(C(=O)N2CCN(c3cnc4ccccc4c3)CC2)c1` [Example 1.28, (2-Cyclopentyloxy-5-methanesulfonyl-phenyl)-(4-quinolin-3-yl-piperazin-1-yl)-methanone], the IC50 came to 149 nM. Turning to `CC(C)Oc1ccc(S(C)(=O)=O)cc1C(=O)N1CCN(c2nsc3ccccc23)CC1` [Example 1.29, (4-Benzo [d]isothiazol-3-yl-piperazin-1-yl)-(2-isopropoxy-5-methanesulfonyl-phenyl) -methanone], half-maximal inhibition (IC50) was put at 500 nM.

For `O=C(c1cc([N+](=O)[O-])ccc1N1CCOCC1)N1CCN(c2nsc3ccccc23)CC1` [Example 1.31, (4-Benzo[d]isothiazol-3-yl-piperazin-1-yl)-(2-morpholin-4-yl-5-nitro-phenyl) -methanone], the IC50 amounted to 467 nM.

In the case of `C[C@H](Oc1ccc(S(C)(=O)=O)cc1C(=O)N1CCN(c2nsc3ccccc23)CC1)C(F)(F)F` [Example 1.33, (4-Benzo[d]isothiazol-3-yl-piperazin-1-yl)-[5-methanesulfonyl-2-((S)-2,2,2-trifluoro-1-methyl-ethoxy)-phenyl]-methanone], half-maximal inhibition (IC50) was put at 55 nM.

For the compound `CS(=O)(=O)c1ccc(OCC2CC2)c(C(=O)N2CCN(c3nc4ccc(Cl)cc4s3)CC2)c1` [Example 1.39, [4-(6-Chloro-benzothiazol-2-yl)-piperazin-1-yl]-(2-cyclopropylmethoxy-5-methanesulfonyl-phenyl)-methanone], the IC50 amounted to 230 nM.

Compound `C[C@H](Oc1ccc(S(C)(=O)=O)cc1C(=O)N1CCN(c2nc3ccc(Cl)cc3s2)CC1)C(F)(F)F` [Example 1.40, [4-(6-Chloro-benzothiazol-2-yl)-piperazin-1-yl]-[5-methanesulfonyl-2-((S)-2,2,2-trifluoro-1methyl-ethoxy)-phenyl]-methanone] gave an IC50 of 39 nM.
